The results in this text go back to US20200291018A1, “TAM KINASE INHIBITORS” (SYROS PHARMACEUTICALS, INC., priority 2017, published 2020).

One assay deals with T1, AXL (Homo sapiens, UniProt P30530).
T1 sequence (P30530 26-894): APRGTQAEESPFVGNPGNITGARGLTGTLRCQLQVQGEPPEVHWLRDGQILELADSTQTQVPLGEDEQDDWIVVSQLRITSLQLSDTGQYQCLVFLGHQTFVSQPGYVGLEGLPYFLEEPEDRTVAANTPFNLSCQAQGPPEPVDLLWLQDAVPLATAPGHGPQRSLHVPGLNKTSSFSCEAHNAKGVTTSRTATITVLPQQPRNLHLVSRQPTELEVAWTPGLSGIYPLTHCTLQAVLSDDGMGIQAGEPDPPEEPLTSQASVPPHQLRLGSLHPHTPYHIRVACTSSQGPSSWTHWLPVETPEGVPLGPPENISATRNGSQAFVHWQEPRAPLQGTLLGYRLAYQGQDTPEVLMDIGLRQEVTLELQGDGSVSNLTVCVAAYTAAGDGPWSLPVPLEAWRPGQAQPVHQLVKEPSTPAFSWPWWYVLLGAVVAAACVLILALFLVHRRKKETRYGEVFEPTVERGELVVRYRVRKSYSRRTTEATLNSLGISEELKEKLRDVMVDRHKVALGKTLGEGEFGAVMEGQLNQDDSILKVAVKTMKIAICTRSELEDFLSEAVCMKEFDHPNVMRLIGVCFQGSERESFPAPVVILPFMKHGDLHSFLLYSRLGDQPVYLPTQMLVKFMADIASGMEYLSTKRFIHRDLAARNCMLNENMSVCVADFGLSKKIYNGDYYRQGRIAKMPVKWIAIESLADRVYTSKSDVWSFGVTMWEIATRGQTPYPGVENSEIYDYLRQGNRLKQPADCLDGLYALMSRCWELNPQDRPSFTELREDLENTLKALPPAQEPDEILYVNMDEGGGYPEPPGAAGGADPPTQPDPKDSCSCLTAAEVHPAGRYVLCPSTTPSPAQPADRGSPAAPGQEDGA
Nature of the assay: TR-FRET kinase activity assay, AXL. It counts as biochemical. To be noted: ATP at Km, 60 minutes. The procedure, abridged: (§1)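 TR-FRET signal from Eu-labeled phospho-site antibody bound to tyrosine-phosphorylated fluorescent peptide; inhibition lowers signal, giving IC50. Reactions: 50 mM HEPES pH 7.5, 10 mM MgCl2, 1 mM EGTA, 0.01% Brij 35, 1 mM DTT, ATP at Km per enzyme, 60 min, RT.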
On the technique in general: TR-FRET usually uses a lanthanide donor and a delayed reading to cut background.

The target in a further assay is T2, FLT3 (Homo sapiens, UniProt P36888).
T2 sequence (P36888 27-993): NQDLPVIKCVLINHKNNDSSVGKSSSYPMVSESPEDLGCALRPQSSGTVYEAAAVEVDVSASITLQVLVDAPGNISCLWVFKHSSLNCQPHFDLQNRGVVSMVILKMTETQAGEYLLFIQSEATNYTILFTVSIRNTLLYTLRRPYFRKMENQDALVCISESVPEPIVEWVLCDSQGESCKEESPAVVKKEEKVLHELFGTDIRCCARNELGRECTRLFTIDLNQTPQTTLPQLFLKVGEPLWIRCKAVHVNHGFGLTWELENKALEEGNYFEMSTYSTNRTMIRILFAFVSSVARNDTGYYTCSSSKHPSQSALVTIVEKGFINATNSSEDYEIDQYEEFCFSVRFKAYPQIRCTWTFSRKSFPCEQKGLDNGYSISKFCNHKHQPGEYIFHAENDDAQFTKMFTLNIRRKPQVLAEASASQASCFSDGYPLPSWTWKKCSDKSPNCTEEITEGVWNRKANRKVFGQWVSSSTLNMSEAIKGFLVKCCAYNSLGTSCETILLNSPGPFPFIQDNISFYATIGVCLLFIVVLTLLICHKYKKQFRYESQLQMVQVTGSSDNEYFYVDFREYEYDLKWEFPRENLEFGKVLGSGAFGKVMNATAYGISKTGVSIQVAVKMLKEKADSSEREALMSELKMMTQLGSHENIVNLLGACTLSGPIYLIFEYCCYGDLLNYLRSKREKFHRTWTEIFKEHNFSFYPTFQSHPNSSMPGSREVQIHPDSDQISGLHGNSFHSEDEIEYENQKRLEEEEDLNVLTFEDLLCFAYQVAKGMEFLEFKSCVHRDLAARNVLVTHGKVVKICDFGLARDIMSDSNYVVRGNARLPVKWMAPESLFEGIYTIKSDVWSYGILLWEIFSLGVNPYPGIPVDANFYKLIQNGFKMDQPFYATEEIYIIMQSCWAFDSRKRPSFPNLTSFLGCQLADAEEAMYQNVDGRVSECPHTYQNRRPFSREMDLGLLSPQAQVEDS
Nature of the assay: TR-FRET kinase activity assay, FLT3. The format is biochemical. To be noted: ATP at Km, 60 minutes. The procedure, abridged: as §1

A word on the IC50: it is the midpoint of a concentration-inhibition curve. Low values mean higher potency, high ones lower potency.

For `C[C@@H](CC(F)(F)F)Nc1ncc2c(OC3CC(C)(C)N(C[C@@H]4CCCO4)C(C)(C)C3)ncc([C@H]3CC[C@H](O)CC3)c2n1` [Compound 418], the IC50 against AXL and at FLT3 was not above 100 nM each time.

In the case of `COC[C@H](C)Nc1ncc2c(O[C@H]3C[C@H](C(=O)N4CCN(C)CC4)C3)ncc([C@H]3CC[C@H](O)CC3)c2n1` [Compound 419], the half-maximal inhibitory concentration (IC50) on AXL is 100 to 1000 nM; at FLT3, 1000 to 10000 nM.

`C[C@@H](CC(F)(F)F)Nc1ncc2c(O[C@H]3C[C@H](CN4CCOCC4)C3)ncc([C@H]3CC[C@H](O)CC3)c2n1` [Compound 420]: the concentration for half-maximal inhibition (IC50) on AXL was not above 100 nM; on FLT3 it was 100 to 1000 nM.

For the compound `C[C@@H](CC(F)(F)F)Nc1ncc2c(O[C@@H]3C[C@H]4CC[C@@H](C3)N4C[C@@H]3CCCO3)ncc([C@H]3CC[C@H](O)CC3)c2n1` [Compound 421], the IC50 against AXL and on FLT3 was not above 100 nM in each case.

As to `C[C@@H](CC(F)(F)F)Nc1ncc2c(O[C@H]3C[C@H](N4CCOCC4)C3)ncc([C@H]3CC[C@H](O)CC3)c2n1` [Compound 422], the values for the IC50 against AXL and at FLT3 were not above 100 nM and 100 to 1000 nM, respectively.

Turning to `C[C@@H](CC(F)(F)F)Nc1ncc2c(O[C@H]3C[C@@H](O)C3)ncc([C@H]3CC[C@](C)(O)CC3)c2n1` [Compound 423], the half-maximal inhibitory concentration (IC50) against AXL is not above 100 nM; on FLT3, 100 to 1000 nM.

For the compound `C[C@@H](CC(F)(F)F)Nc1ncc2c(O[C@H]3C[C@@H](O)C3)ncc([C@H]3CC[C@@](C)(O)CC3)c2n1` [Compound 424], the IC50 at AXL is not above 100 nM; on FLT3, 100 to 1000 nM.

In the case of `COC[C@H](C)Nc1ncc2c(O[C@H]3C[C@@H](O)C3)ncc(-c3ccnnc3)c2n1` [Compound 425], the IC50 on AXL and at FLT3 was 1000 to 10000 nM in each case.

On to `COC[C@H](C)Nc1ncc2c(O[C@H]3C[C@@H](O)C3)ncc([C@H]3CC[C@](C)(O)CC3)c2n1` [Compound 426], for which the IC50 at AXL lay in the range of 100 to 1000 nM; at FLT3 it was 1000 to 10000 nM.

For the compound `COC[C@H](C)Nc1ncc2c(O[C@H]3C[C@@H](O)C3)ncc([C@H]3CC[C@@](C)(O)CC3)c2n1` [Compound 427], the IC50 against AXL is 100 to 1000 nM; against FLT3, more than 10000 nM.

On to `C[C@@H](CC(F)F)Nc1ncc2c(O[C@H]3C[C@@H](O)C3)ncc([C@H]3CC[C@H](O)CC3)c2n1` [Compound 428], for which the IC50 against AXL was not above 100 nM; on FLT3 it was 100 to 1000 nM.

With `C[C@@H](CC(F)(F)F)Nc1ncc2c(O[C@H]3C[C@@](C)(O)C3)ncc([C@H]3CC[C@H](O)CC3)c2n1` [Compound 429], the IC50 against AXL was not above 100 nM; against FLT3, 100 to 1000 nM.
